pIC50, pKd: −log10 of the molar value. Values belong to the compound of their own block, whether it stands above or below them. *1 amine or outer side, *2 acyl side, *3 side chain or, on linkers, in order; H or OH if unused. Where a SMILES comes first, the peptide text is derived from it. [ ]: non-standard residue; d: D form. The star is where a group is joined. ξ: configuration not given here. X1 = Brc1c(Br)c(Br)c2[nH]c(NCCCN*)nc2c1Br; X2 = O=C(Cc1c(Br)c(Br)c(Br)c2[nH]nnc12)*; Suc = O=C(CCC(=O)[*:2])[*:1]; ξE = NC(CCC(=O)O)C(=O)O; ξS = NC(CO)C(=O)O
Experiments:
[1] = target: Rho-associated protein kinase 2 (Homo sapiens, UniProt O75116); assay: Inhibition of ROCK2 (unknown origin) assessed as dissociation constant
Chain of Rho-associated protein kinase 2 (O75116 whole entry): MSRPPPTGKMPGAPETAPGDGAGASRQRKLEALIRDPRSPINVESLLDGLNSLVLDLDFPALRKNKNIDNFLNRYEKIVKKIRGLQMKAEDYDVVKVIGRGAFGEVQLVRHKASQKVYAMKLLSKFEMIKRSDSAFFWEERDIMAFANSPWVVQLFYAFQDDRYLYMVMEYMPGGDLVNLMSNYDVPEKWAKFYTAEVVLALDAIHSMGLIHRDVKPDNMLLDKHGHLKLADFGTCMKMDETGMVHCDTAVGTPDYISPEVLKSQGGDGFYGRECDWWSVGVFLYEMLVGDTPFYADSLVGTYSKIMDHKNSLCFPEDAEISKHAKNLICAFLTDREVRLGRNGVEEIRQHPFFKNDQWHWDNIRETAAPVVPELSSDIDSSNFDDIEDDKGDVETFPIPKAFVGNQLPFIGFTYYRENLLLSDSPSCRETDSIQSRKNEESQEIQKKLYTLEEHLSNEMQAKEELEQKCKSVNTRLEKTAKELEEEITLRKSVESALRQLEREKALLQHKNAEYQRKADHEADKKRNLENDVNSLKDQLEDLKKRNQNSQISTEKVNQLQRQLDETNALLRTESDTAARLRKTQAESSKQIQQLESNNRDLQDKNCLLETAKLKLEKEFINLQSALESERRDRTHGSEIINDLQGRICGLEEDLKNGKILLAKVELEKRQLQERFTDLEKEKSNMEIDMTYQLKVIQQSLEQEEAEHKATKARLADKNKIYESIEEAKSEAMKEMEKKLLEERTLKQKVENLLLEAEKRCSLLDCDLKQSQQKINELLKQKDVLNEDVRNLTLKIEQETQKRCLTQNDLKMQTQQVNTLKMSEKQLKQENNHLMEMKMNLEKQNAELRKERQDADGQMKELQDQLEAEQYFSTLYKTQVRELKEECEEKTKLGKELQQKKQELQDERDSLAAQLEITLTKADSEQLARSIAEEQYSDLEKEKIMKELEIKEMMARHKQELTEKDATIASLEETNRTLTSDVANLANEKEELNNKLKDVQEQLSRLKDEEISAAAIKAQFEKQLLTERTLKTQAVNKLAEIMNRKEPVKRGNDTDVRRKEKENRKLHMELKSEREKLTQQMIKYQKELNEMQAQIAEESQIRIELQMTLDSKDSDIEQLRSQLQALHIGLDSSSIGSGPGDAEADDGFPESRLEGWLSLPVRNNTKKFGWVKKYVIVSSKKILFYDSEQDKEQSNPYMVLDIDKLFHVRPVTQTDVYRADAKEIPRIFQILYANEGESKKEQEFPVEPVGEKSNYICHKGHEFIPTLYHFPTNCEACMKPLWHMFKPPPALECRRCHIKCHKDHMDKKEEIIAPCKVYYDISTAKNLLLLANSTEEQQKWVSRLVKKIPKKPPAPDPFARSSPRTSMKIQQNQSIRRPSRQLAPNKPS

[2] = target: T1, cAMP-dependent protein kinase (PKA) (Homo sapiens, UniProt P22694+P17612+P22612); assay: Binding affinity to PKA (unknown origin) assessed as dissociation constant; format: protein assay
Homo sapiens [3] = organism: Homo sapiens; assay: Selectivity ratio of Kd for inhibition of Untagged full length human PKAc alpha expressed in Escherichia coli BL21 DE3 cells assessed as dissociation constant to Kd for inhibition of ROCK2 (unknown origin)
[4] = Binding affinity to PKAc (unknown origin) assessed as dissociation constant; design: species or system Homo sapiens
Homo sapiens [5] = organism: Homo sapiens; assay: Selectivity ratio of Kd for inhibition of Untagged full length human PKAc alpha expressed in Escherichia coli BL21 DE3 cells assessed as dissociation constant to Kd for AKR3
[6] = Inhibition of AKR3 (unknown origin) assessed as dissociation constant; design: species or system Homo sapiens
[7] = target: Casein kinase II subunit alpha (Homo sapiens, UniProt P68400); assay: Inhibition of CK2alpha in human MIA PaCa-2 cells incubated for 5 hrs by western blot analysis; format: cell-based
Chain of Casein kinase II subunit alpha (P68400 whole entry): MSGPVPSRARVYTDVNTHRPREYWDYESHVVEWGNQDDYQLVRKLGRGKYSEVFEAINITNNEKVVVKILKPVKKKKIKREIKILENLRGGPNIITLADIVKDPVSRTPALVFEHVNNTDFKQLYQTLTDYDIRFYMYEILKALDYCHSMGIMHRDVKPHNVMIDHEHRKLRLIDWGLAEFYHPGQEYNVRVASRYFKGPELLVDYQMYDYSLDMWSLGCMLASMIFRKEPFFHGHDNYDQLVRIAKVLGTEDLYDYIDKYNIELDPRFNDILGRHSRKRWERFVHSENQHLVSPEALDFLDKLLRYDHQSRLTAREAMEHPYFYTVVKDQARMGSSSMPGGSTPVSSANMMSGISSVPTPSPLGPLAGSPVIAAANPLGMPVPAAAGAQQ

[8] = target: T1, cAMP-dependent protein kinase (PKA)
Homo sapiens [9] = organism: Homo sapiens
[10] = Binding affinity to full length human recombinant PKAc assessed as dissociation constant
[11] = target: T2, Serine/threonine-protein kinase haspin (Homo sapiens, UniProt Q8TF76)
T2 sequence (Q8TF76 whole entry): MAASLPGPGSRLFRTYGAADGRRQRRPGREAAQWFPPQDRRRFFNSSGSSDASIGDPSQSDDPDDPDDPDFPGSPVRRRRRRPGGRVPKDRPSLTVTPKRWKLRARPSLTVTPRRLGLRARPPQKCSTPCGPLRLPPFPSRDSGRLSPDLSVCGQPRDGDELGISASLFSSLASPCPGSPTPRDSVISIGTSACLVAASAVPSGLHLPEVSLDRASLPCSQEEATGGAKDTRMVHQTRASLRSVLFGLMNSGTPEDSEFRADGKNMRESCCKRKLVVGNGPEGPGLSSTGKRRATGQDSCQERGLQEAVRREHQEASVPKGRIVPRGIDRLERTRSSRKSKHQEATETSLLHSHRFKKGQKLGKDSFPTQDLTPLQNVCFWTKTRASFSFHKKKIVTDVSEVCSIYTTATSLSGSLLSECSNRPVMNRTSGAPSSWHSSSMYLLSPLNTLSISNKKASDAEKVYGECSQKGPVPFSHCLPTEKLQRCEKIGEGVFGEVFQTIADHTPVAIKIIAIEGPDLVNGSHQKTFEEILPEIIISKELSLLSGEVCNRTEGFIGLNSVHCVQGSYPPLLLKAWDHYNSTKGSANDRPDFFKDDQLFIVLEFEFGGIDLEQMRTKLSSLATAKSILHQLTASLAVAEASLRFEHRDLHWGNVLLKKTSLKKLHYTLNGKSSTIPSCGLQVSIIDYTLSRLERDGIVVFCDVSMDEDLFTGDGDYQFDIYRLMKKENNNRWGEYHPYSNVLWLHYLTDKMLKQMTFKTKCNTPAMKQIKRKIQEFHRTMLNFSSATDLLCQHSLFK

Casein kinase 2 = Casein kinase 2 (Homo sapiens, UniProt P67870+P68400+P19784+Q8NEV1); assay: Inhibition of human CK2; format: protein assay
[12] = target: T2, Serine/threonine-protein kinase haspin; remark: listed apart in the source
[13] = target: T2, Serine/threonine-protein kinase haspin; remark: listed apart in the source
[14] = Inhibition of CK2alpha2beta2 (unknown origin); design: species or system Homo sapiens

- pKd [1]: 7.52
- Kd [2]: 0.1 nM
- pKd [4]: 11.52
- pKd [6]: 6.51
Structure (SMILES): N=C(N)NCCC[C@@H](NC(=O)CCCCCCCC(=O)N1CCN(C2N=CN=C3NC=CC32)CC1)C(=O)N[C@H](CCCNC(=N)N)C(=O)N[C@H](CCCNC(=N)N)C(=O)N[C@H](CCCNC(=N)N)C(=O)N[C@H](CCCNC(=N)N)C(=O)N[C@H](CCCNC(=N)N)C(=O)N[C@H](CCCCN)C(N)=O (stereo not given in full)
- Ratio (Homo sapiens [3]): 10
- Selectivity ratio (Homo sapiens [5]): 10

- pIC50 [7]: 7.33
Structure (SMILES): CC(=O)OCOC(=O)CN(CC(=O)OCOC(C)=O)C(=O)CN(CC(=O)OCOC(C)=O)C(=O)CN(CC(=O)OCOC(C)=O)C(=O)CCCCCCCn1cnc2c(Br)c(Br)c(Br)c(Br)c21

- IC50 [8]: 57000 nM
Structure (SMILES): CC(C)[C@@H]1NC(=O)[C@H](CCCNC(=N)N)NC(=O)[C@H](Cc2ccccc2)NC(=O)[C@H]([C@@H](C)O)NC(=O)[C@@H](N)CSSC[C@@H](C(=O)NCC(N)=O)NC(=O)NC(=O)[C@H](Cc2ccccc2)NC1=O

- Selectivity Index (Homo sapiens [9]): 50
- pKd [10]: 5.11
- pKd [11]: 6.82
Structure (SMILES): C[C@H](N)C(=O)N[C@@H](CCCNC(=N)N)C(=O)N[C@@H](CCCCNC(=O)C[C@@H](NC(=O)CCCCCNC(=O)[C@H]1O[C@@H](n2cnc3c(N)ncnc32)[C@H](O)[C@@H]1O)C(=O)O)C(=O)N[C@@H](CCCCN)C(=O)N[C@@H](CCC(N)=O)C(=O)N[C@H](C(=O)N[C@@H](C)C(N)=O)[C@@H](C)O

- IC50 (Casein kinase 2): 670 nM
Structure (SMILES): NC(=O)C(CCC(=O)O)NC(=O)C(CCC(=O)O)NC(=O)C(CCC(=O)O)NC(=O)C(CO)NC(=O)C(CCC(=O)O)NC(=O)[C@@H](N)CCCCNC(=O)Cc1c(Br)c(Br)c(Br)c2[nH]nnc12 (stereo not given in full) (H-K(X2)[ξE][ξS][ξE][ξE][ξE]-NH2)

- Selectivity Index (Homo sapiens [9]): 90
- pKd [10]: 7.42
- pKd [11]: 9.38
Structure (SMILES): C[C@H](N)C(=O)N[C@@H](CCCNC(=N)N)C(=O)N[C@@H](CCCCNC(=O)C[C@@H](NC(=O)CCCCCNC(=O)[C@H]1O[C@@H](n2cnc3c(N)ncnc32)[C@H](O)[C@@H]1O)C(N)=O)C(=O)N[C@@H](CCCCN)C(=O)N[C@@H](CCC(N)=O)C(=O)N[C@H](C(=O)N[C@@H](C)C(=O)N[C@@H](CCCNC(=N)N)C(=O)N[C@@H](CCCNC(=N)N)C(=O)N[C@@H](CCCNC(=N)N)C(=O)N[C@@H](CCCNC(=N)N)C(=O)N[C@@H](CCCNC(=N)N)C(=O)N[C@@H](CCCNC(=N)N)C(N)=O)[C@H](C)O

- pKd [12]: < 4.82
Structure (SMILES): Nc1ncnc2c1ncn2[C@@H]1O[C@H](C(=O)O)[C@@H](O)[C@H]1O [5'-CARBOXY ADENOSINE]

Structure (SMILES): C[C@H](N)C(=O)N[C@@H](CCCNC(=N)N)C(=O)N[C@@H](CCCCNC(=O)C[C@@H](NC(=O)CCCCCNC(=O)[C@H]1O[C@@H](n2cc(I)c3c(N)ncnc32)[C@H](O)[C@@H]1O)C(=O)O)C(=O)N[C@@H](CCCNC(=N)N)C(=O)N[C@@H](CCC(=O)O)C(=O)N[C@H](C(=O)N[C@@H](C)C(=O)N[C@H](CCCCN)C(N)=O)[C@H](C)O
- Selectivity Index (Homo sapiens [9]): 4900
- pKd [12]: 10.72
- pKd [10]: 7.03
- pKd [13]: 10.72

- Selectivity Index (Homo sapiens [9]): 9
- pKd [10]: 5.80
- pKd [11]: 6.77
Structure (SMILES): C[C@H](N)C(=O)N[C@@H](CCCNC(=N)N)C(=O)N[C@@H](CCCCNC(=O)C[C@@H](NC(=O)CCCCCNC(=O)[C@H]1O[C@@H](n2cnc3c(N)ncnc32)[C@H](O)[C@@H]1O)C(N)=O)C(=O)N[C@@H](CCCCN)C(=O)N[C@@H](CCC(=O)O)C(=O)N[C@H](C(=O)N[C@@H](C)C(N)=O)[C@H](C)O

- pIC50 [14]: 6.89
Structure (SMILES): NCCCNc1nc2c(Br)c(Br)c(Br)c(Br)c2[nH]1

- pIC50 [14]: 7.60
Structure (SMILES): O=C(O)CC[C@H](NC(=O)[C@H](CCC(=O)O)NC(=O)[C@H](CCC(=O)O)NC(=O)[C@H](CCC(=O)O)NC(=O)CCC(=O)NCCCNc1nc2c(Br)c(Br)c(Br)c(Br)c2[nH]1)C(=O)O ({X1-Suc}-EEEE-OH)

Source: ChEMBL document CHEMBL5096167, “Recent advances in development of hetero-bivalent kinase inhibitors” (Eur J Med Chem, 2021)
